System: iPSC-derived cardiomyocytes
Assay: RT-qPCR of selected sarcomere genes (TNNI1, TNNI3)
Assay type: cell-based, human
Settings: Torin1 10 nM and 25 nM, maturation media groups (3 mM glucose)
Description: Gene expression (RT-qPCR): RNA was extracted from cells using […], then reverse transcribed to cDNA with the Iscript™ cDNA Synthesis Kit (Bio-Rad, US). The quantitative polymerase chain reaction was performed using the Lightcycler® 480 SYBR Green I Master (syber green) (Roche, Switzerland).
Cardiomyocyte maturation: hiPSCs were differentiated into cardiomyocytes as follows. On day 0, the hiPSC medium was replaced with CDM3 media supplemented with 6 μM CHIR99021 (R&D Systems, US) to induce differentiation toward a mesodermal fate. After 48 hours the same medium was use, supplemented with 2 μM of Wnt-C59 (Selleck Chemicals, US). After 48 hours, the medium was replaced with RPMI-B27-insulin (Thermo Fisher Scientific, US). On day 10, maturation process was started with the replacement of the medium with maturation media. This process continued for 14 days during which Torin1 was added only in the first 7 days. At the end of the process, several criteria were tested to characterize the maturation of the CMs and the other supporting cells. […]

CCC(=O)N1CCN(c2ccc(-n3c(=O)ccc4cnc5ccc(-c6cnc7ccccc7c6)cc5c43)cc2C(F)(F)F)CC1 [Torin1]
TNNI3 mRNA expression: trended toward increased expression of TNNI3 mRNA expression in a dose-dependent manner
